Patent publication US20230181532A1, “GRANULES FOR 3D PRINTING TECHNOLOGY” (BOARD OF REGENTS, THE UNIVERSITY OF TEXAS SYSTEM, priority 2020, published 2023)

Assays:
Type in all cases: physicochemical
Angle of repose (AOR) = assay: Angle of repose (AOR)
From the text: A 100 mm circular test platform together with a digital height gauge having a range of 0-300 mm and an accuracy of 0.03 mm was used (BEP2, Copley Scientific Limited. Nottingham, UK). […] The surplus powder was collected in a tray below the test platform. The nozzle (10 mm nozzle for the angle of repose) of the funnel was placed 75 mm above the test platform, and the nozzle was secured using the shutter mechanism. 100 g of the sample (drug and granules) were placed in the funnel, and the shutter was moved gently but rapidly to allow the powder to flow. The powder formed a conical on the test platform and started overflowing. […] The height of the powder cone was measured using the digital height gauge and the diameter of the cone was 100 (diameter of the platform was 100 mm). Equation 2 was used to calculate the angle of repose.

[1] = Flow through orifice powder flow test
From the text: A United States Pharmacopoeia (USP) compliant flowability tester, with funnel attachments (BEP2, Copley Scientific Limited, Nottingham, UK) was used for the flow-through orifice study. The purpose of this test was to stimulate the flow in a hopper or other mass transfer situations (Taylor et al., 2000). The funnel was placed 40 mm above the collecting beaker, and the beaker was placed on a measuring scale. The nozzle was fixed onto the funnel and the shutter mechanism was used to prevent any premature flow from the funnel. 100 g of the sample powder was transferred to the funnel and the test was started 30 s after the transfer (this facilitated floccule formation). The weight was recorded for the samples with respect to the time in triplicates (n=3) for each nozzle diameter (10, 15, and 25 mm) and samples (PA 12 (reference), granules, and drug). Time versus weight curves were constructed for the processed granules and the properties were compared with PA 12.

[2] = In vitro release testing, pH shift dissolution (USP type II paddle); details: pH 2, 2 h
Description: The in vitro release testing was performed using a pH shift protocol to simulate physiological conditions and contrary to the USP dissolution medium i.e., pH 7.2 phosphate buffer. […] Moreover, because of its pKa and hydrophobicity, and the amorphous nature of the drug in the samples of interest, it was important to expose it to acidic conditions before exposing it to relatively basic conditions. […] If the drug exists in its amorphous form in the formulation, it is crucial to study its stability in the acidic pH as in the physiological environment the formulation will be exposed to it first.
For this pH-shift dissolution test, the above-mentioned samples (n=3) were introduced into 750 mL of HCl-KCl buffer (pH 2, 0.1 M, hydrochloric acid-potassium chloride buffer) for 2 h using a 900 mL vessel. 150 mL of phosphate buffer (pH6.8, 0.1 M) was then introduced to each vessel shifting the pH from 2 to 6.8, with a final volume of 900 mL. […] The dissolution of the samples was tested at the final pH of 6.8 for an additional 2 h. The test was conducted using a Paddle type assembly (USP type II). […] Acetonitrile was used to dilute (2-fold) the drawn samples and the previously described method of analysis was used to quantify the API in the samples.

COc1ccc2c(c1)c(CC(=O)O)c(C)n2C(=O)c1ccc(Cl)cc1 [IND, Indomethacin]
flow classification as per the AOR reference table (Angle of repose (AOR)): very poor | angle of repose θ value (Angle of repose (AOR); 10 mm nozzle, 100 g sample, n=3): 58.2±0.06 ° | flow through orifice observation [1]: no flow throughout the test | dissolution behaviour in acidic environment [2]: did not show any improvement in their solubility
